Results taken from patent publication EP3383875B1, “3-PYRIMIDINYL PYRROLO [2,3-B] PYRIDINE AS ANTICANCER AGENTS AND THE PROCESS FOR THE PREPARATION THEREOF” (Council Of Scientific & Industrial Research, priority 2015, dated 2017).
Read-outs that look alike come from different tables or passages of the source.

Legend:
PC-3 = experiment: MTT assay on cancer cell line PC-3; assay type: cell-based, human; conditions: Homo sapiens
Procedure: (§1) Cell culture, growth conditions and treatments. […] Different molecules were dissolved in DMSO and were delivered to cell cultures in complete medium.

SHSY-5Y = experiment: MTT assay on cancer cell line SHSY-5Y; assay type: cell-based, human; conditions: Homo sapiens, SH-SY5Y
Procedure: as §1

CDK-9/Cyclin T1 = CDK-9/Cyclin T1 (Homo sapiens, UniProt P50750); experiment: CDK inhibition assay, CDK-9/Cyclin T1 against substrate peptide, 33P-ATP; assay type: biochemical; conditions: at 500 nM
CDK-9/Cyclin T1, sequence (P50750 whole entry): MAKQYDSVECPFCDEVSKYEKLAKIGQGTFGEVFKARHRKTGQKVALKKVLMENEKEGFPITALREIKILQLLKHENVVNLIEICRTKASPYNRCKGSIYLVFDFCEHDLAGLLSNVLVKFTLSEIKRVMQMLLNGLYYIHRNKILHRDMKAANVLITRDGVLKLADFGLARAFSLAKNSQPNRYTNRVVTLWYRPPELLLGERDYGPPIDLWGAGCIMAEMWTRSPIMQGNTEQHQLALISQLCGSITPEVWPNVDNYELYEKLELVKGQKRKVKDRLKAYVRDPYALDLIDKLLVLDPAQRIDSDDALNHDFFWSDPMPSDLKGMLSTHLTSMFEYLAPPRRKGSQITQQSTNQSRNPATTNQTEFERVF
CDK-9/Cyclin T1, sequence (O60563 whole entry partner): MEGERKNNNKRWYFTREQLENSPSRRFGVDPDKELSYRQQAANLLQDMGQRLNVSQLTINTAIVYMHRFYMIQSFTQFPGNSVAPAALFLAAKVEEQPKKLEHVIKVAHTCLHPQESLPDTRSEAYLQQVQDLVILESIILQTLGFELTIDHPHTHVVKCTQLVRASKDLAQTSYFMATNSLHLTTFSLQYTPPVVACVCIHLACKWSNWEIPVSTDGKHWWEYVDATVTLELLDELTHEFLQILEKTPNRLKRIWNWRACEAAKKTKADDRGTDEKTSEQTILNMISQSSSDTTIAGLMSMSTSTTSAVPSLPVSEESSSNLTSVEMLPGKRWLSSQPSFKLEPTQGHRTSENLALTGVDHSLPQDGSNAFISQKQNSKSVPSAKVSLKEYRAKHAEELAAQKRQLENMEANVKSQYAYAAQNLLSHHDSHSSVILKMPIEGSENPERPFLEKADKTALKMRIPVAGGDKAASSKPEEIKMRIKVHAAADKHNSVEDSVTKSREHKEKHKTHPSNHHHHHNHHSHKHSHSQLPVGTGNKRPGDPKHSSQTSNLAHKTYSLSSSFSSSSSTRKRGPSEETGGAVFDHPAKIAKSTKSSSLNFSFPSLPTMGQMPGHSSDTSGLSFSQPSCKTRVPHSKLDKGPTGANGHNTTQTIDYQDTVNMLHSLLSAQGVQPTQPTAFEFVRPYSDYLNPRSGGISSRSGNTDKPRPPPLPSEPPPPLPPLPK
Procedure: (50-1000 cpm/pmole) and incubated for 30 min at room temperature. Assays were stopped by addition of 5 µl of 0.5 M (3%) orthophosphoric acid and then harvested onto P81 Unifilter plates with a wash buffer of 50 mM orthophosphoric acid.

CDK-2/cyclin A = CDK-2/cyclin A (Homo sapiens, UniProt P24941); experiment: CDK inhibition assay, CDK-2/cyclin A against Histone HI, 33P-ATP; assay type: biochemical; conditions: at 500 nM
Outline: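 CDK-2/cyclin A (5-20 mU) phosphorylating Histone HI (1 mg/ml) in 50 mM Hepes pH 7.5, 100 mM NaCl, 10 mM Mg acetate, 0.02 mM [33P-γ-ATP], 30 min at room temperature. Stopped with orthophosphoric acid, captured on P81 filters for radiometric readout.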

HCT-116 = experiment: MTT assay on cancer cell line HCT-116; assay type: cell-based, human; conditions: Homo sapiens
Procedure: as §1

MDA-MB435 = experiment: MTT assay on cancer cell line MDA-MB435; assay type: cell-based, Human; conditions: Homo sapiens, MDA-MB-435
Procedure: as §1

MCF-7 = experiment: MTT assay on cancer cell line MCF-7; assay type: cell-based, Human; conditions: Homo sapiens
Procedure: as §1

[1] = Table 8, read-out: In vitro cell inhibition, % of inhibition, PC-3
[2] = SHSY-5Y, Table 8, read-out: In vitro cell inhibition, % of inhibition, SHSY-5Y
[3] = read-out: inhibition against SHSY-5Y cell lines
[4] = Table-6, read-out: In vitro CDK9 % of inhibition
[5] = read-out: inhibition against CDK9
[6] = Table-6, read-out: In vitro CDK2 % of inhibition
[7] = read-out: inhibition against CDK2
[8] = at 10µM, Table 8, read-out: In vitro cell inhibition, % of inhibition, HCT-116
[9] = at 10 µM, read-out: inhibition against HCT-116 cell lines
[10] = MDA-MB435, at 10µM, Table 8, read-out: In vitro cell inhibition, % of inhibition, MDA-MB435
[11] = at 10 µM, read-out: inhibition against MDAMB-435 cell lines
[12] = MCF7, MCF-7, Table 8, read-out: In vitro cell inhibition, % of inhibition, MCF-7
[13] = MCF7, read-out: inhibition against MCF-7 cell lines
[14] = read-out: inhibition against PC-3 cell lines

Structure (SMILES) | inhibition at 10 µM (PC-3; [1]) [%] | inhibition at 10 µM (SHSY-5Y; [2]) [%] | inhibition at 10 µM (SHSY-5Y; [3]) [%] | inhibition at 0.5 µM (CDK-9/Cyclin T1; [4]) [%] | inhibition at 0.5 µM (CDK-9/Cyclin T1; [5]) [%] | inhibition at 0.5 µM (CDK-2/cyclin A; [6]) [%] | inhibition at 0.5 µM (CDK-2/cyclin A; [7]) [%] | inhibition at 10 µM (HCT-116; [8]) [%] | inhibition at 10 µM (HCT-116; [9]) [%] | inhibition at 10 µM (MDA-MB435; [10]) [%] | inhibition at 10 µM (MDA-MB435; [11]) [%] | inhibition at 10 µM (MCF-7; [12]) [%] | inhibition at 10 µM (MCF-7; [13]) [%] | inhibition at 10 µM (PC-3; [14]) [%]
c1ccc2c(-c3cnc4[nH]cc(-c5ccnc(NC6CC6)n5)c4c3)cccc2c1 [1A14, N-cyclopropyl-4-(5-(naphthalen-1-yl)-1H-pyrrolo[2,3-b]pyridin-3-yl)pyrimidin-2-amine] | > 70 | > 70 | > 70 | > 50 | > 50 | > 50 | > 50 | > 70 | > 70 | > 70 | > 70 | > 70 | > 70 | –
c1cncc(-c2cnc3[nH]cc(-c4ccnc(NC5CC5)n4)c3c2)c1 [1A15, N-cyclopropyl-4-(5-(pyridin-3-yl)-1H-pyrrolo[2,3-b]pyridin-3-yl)pyrimidin-2-amine] | > 50 | > 70 | > 70 | > 50 | > 50 | > 50 | > 50 | > 70 | > 70 | > 70 | > 70 | > 70 | > 70 | > 50
c1cc(-c2c[nH]c3ncc(-c4ccoc4)cc23)nc(NC2CC2)n1 [1A16, N-cyclopropyl-4-(5-(furan-3-yl)-1H-pyrrolo[2,3-b]pyridin-3-yl)pyrimidin-2-amine] | > 70 | > 50 | – | > 70 | > 70 | > 70 | > 70 | > 70 | – | > 70 | – | > 50 | > 50 | –
Fc1ccc(-c2cnc3[nH]cc(-c4ccnc(NC5CCCC5)n4)c3c2)cc1 [1A22, N-cyclopentyl-4-(5-(4-fluorophenyl)-1H-pyrrolo[2,3-b]pyridin-3-yl)pyrimidin-2-amine] | > 50 | > 70 | > 70 | > 50 | – | > 50 | – | > 50 | – | < 50 | – | > 50 | > 50 | –
FC(F)(F)Oc1ccc(-c2cnc3[nH]cc(-c4ccnc(NC5CCCC5)n4)c3c2)cc1 [1A23, N-cyclopentyl-4-(5-(4-(trifluoromethoxy)phenyl)-1H-pyrrolo[2,3-b]pyridin-3-yl)pyrimidin-2-amine] | > 50 | > 70 | > 70 | > 50 | – | > 70 | – | > 50 | – | < 50 | – | > 50 | > 50 | –
COc1ccc(-c2cnc3[nH]cc(-c4ccnc(NC5CCCC5)n4)c3c2)cc1 [1A31, N-cyclopentyl-4-(5-(4-methoxyphenyl)-1H-pyrrolo-[2,3-b]pyridin-3-yl)pyrimidin-2-amine] | > 50 | > 70 | > 70 | > 50 | > 50 | > 50 | > 50 | > 50 | – | > 50 | – | < 50 | < 50 | > 50
FC(F)(F)c1ccc(-c2cnc3[nH]cc(-c4ccnc(NC5CCCCCC5)n4)c3c2)cc1 [1A41, N-cycloheptyl-4-(5-(4-(trifluoromethyl)phenyl)-1H-pyrrolo[2,3-b]pyridin-3-yl)pyrimidin-2-amine] | < 50 | > 70 | > 70 | < 50 | – | < 50 | – | > 50 | – | < 50 | – | > 50 | > 50 | –
